Source: publication PMC7864068, “α2-Macroglobulin-like protein 1 can conjugate and inhibit proteases through their hydroxyl groups, because of an enhanced reactivity of its thiol ester” (The Journal of Biological Chemistry, 2021)
Residue numbers refer to the chain shown, from its start.

Key:
Experiment in all cases: LC-MS/MS PRM of the pepsin-digested thiol ester peptide conjugate
Assay type in all cases: biochemical
[1] = target: T1, A2M (α2-macroglobulin) (Homo sapiens, UniProt P01023); conditions: covalent amide at thiol ester Gln-975; plasma-purified A2M activated by chymotrypsin; 200 mM glycine, HBS pH 7.4, 37 °C
T1 construct: WT purified from plasma; N1088H recombinant from HEK293 cells (gene based on mRNA M11311), native form enriched by LRP1 depletion; tetramer; cleaved by chymotrypsin in the assay
T1 sequence (P01023 24-1474): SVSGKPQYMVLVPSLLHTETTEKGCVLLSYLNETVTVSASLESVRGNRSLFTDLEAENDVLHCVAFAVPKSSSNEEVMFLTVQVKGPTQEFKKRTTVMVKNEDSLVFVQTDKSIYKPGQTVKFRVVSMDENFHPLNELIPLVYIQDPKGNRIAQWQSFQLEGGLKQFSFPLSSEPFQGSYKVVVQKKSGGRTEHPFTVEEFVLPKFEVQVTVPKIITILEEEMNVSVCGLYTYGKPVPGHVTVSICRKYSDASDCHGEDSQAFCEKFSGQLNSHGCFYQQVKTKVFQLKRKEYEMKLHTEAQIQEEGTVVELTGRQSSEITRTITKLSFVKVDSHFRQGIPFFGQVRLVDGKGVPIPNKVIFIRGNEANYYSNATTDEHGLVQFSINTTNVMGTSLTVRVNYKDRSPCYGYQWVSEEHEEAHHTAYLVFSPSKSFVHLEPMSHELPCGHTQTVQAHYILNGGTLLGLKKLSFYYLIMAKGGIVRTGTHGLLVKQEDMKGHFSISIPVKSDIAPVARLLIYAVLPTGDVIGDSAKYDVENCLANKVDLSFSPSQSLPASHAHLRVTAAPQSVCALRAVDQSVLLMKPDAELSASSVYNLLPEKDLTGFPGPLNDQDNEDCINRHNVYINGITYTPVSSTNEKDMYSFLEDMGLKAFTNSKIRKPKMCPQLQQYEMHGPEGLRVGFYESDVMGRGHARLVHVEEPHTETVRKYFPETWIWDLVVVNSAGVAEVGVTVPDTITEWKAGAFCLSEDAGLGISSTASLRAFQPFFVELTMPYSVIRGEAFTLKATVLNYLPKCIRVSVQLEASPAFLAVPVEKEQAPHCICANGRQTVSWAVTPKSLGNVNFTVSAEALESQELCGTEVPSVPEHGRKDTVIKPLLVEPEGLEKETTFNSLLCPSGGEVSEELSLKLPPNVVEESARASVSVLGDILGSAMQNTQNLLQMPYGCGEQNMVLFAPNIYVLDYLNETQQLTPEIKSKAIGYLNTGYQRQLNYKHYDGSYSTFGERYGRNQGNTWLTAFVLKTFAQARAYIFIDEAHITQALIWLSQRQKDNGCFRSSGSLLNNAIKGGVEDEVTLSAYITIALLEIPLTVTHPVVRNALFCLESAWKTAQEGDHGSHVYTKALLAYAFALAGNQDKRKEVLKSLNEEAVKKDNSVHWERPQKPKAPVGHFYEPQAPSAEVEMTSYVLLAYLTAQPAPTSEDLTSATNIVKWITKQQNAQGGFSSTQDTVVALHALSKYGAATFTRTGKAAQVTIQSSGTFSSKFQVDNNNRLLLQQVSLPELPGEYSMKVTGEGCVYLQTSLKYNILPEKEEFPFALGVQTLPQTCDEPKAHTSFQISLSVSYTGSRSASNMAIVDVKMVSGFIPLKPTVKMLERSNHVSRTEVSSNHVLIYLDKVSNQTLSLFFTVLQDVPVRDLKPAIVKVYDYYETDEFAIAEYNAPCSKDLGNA

[2] = target: T2, A2ML1 (α2-macroglobulin-like protein 1) (Homo sapiens, UniProt A8K2U0); conditions: A2ML1 activated by chymotrypsin, HBS pH 7.4, 37 °C
T2 construct: full-length recombinant, secreted by HEK293 Freestyle cells, no tag mentioned, purified by Zn IMAC, anion exchange and size exclusion; monomer; bait region cleaved by chymotrypsin in the assay
T2 sequence (A8K2U0 18-1454): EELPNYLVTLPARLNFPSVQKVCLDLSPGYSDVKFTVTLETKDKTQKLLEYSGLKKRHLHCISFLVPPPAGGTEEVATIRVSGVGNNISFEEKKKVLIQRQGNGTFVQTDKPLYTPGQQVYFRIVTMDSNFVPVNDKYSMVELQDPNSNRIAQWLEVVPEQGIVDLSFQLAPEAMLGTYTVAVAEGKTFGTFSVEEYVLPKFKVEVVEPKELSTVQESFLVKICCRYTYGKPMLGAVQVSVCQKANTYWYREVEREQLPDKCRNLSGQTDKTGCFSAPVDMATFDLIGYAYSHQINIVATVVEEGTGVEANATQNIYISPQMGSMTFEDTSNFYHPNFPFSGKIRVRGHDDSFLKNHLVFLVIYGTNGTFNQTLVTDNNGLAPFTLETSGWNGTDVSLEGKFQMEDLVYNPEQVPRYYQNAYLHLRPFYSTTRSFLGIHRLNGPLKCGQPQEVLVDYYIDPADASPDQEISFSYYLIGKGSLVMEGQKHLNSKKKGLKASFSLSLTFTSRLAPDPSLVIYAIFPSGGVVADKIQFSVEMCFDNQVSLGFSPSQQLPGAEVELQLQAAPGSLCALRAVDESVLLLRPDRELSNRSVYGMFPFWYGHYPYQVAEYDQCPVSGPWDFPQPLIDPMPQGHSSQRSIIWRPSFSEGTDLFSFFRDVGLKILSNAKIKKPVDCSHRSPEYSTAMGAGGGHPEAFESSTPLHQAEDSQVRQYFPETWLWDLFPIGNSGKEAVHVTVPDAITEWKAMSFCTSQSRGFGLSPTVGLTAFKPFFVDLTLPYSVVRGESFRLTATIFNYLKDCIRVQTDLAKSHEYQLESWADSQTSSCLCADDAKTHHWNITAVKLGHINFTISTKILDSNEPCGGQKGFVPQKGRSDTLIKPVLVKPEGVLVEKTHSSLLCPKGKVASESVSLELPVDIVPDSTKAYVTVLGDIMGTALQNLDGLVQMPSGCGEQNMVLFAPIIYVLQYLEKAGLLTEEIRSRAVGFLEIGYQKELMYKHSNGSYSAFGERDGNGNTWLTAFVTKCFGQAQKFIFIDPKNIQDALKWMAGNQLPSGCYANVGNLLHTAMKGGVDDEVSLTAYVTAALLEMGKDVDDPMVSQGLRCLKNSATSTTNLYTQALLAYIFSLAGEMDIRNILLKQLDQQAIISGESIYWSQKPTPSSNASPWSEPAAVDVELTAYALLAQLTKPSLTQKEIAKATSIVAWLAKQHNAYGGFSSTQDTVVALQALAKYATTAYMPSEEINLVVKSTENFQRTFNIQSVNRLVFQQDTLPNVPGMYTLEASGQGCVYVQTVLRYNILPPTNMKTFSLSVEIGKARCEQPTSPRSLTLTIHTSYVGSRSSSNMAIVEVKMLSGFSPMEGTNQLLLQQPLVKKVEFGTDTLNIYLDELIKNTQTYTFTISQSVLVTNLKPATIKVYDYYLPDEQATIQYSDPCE

[3] = target: T3, A2M (α2-macroglobulin) (Homo sapiens, UniProt P01023, N1088H); conditions: covalent ester at thiol ester Gln-975; recombinant A2M activated by chymotrypsin; 200 mM glycerol, HBS pH 7.4, 37 °C
T3 construct: WT purified from plasma; N1088H recombinant from HEK293 cells (gene based on mRNA M11311), native form enriched by LRP1 depletion; tetramer; cleaved by chymotrypsin in the assay
T3 sequence (P01023 24-1474 N1088H): T1 sequence (P01023 24-1474) with N1065H

Row | SMILES | LC-MS/MS PRM of the pepsin-digested thiol ester peptide conjugate [1] | LC-MS/MS PRM of the pepsin-digested thiol ester peptide conjugate ([2]; covalent amide at thiol ester Gln-973, 200 mM glycine) | LC-MS/MS PRM of the pepsin-digested thiol ester peptide conjugate [3] | LC-MS/MS PRM of the pepsin-digested thiol ester peptide conjugate ([2]; covalent ester at thiol ester Gln-973, 200 mM glycerol)
1 | NCC(=O)O [glycine] | both A2Ms were able to conjugate glycine | both WT and H1084N A2ML1s reacted with the amine substrate glycine | – | –
2 | OCC(O)CO [glycerol] | – | – | reaction products between the thiol ester and glycerol was detected for A2M N1088H | the reaction product with the hydroxyl substrate glycerol was only detected for WT A2ML1
